# From PubChem BioAssay (NCI)
#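 Method: 48-hour compound exposure of cells in 96-well plates, five concentrations, linear interpolation of endpoints. The concentration for 50% growth inhibition is given as GI50. TGI is the concentration that stops growth completely.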
# Experiments:
# Experiment in all cases: NCI anticancer screen, dose series, 48 h
# NCI-H226 lung = test system: NCI-H226 lung
# OVCAR-8 ovarian = test system: OVCAR-8 ovarian
# IGROV1 ovarian = test system: IGROV1 ovarian
# SK-MEL-2 melanoma = test system: SK-MEL-2 melanoma
# MDA-MB-468 breast = test system: MDA-MB-468 breast
# HS 578T breast = test system: HS 578T breast
# COLO 205 colon = test system: COLO 205 colon
# HOP-62 NSCLC = test system: HOP-62 NSCLC
# HCT-116 colon = test system: HCT-116 colon
# HOP-92 NSCLC = test system: HOP-92 NSCLC
# RXF 393 renal = test system: RXF 393 renal
# SNB-75 CNS = test system: SNB-75 CNS
# MALME-3M melanoma = test system: MALME-3M melanoma
# A498 renal = test system: A498 renal
# MCF7 breast = test system: MCF7 breast
# MOLT-4 leukemia = test system: MOLT-4 leukemia
# PC-3 prostate = test system: PC-3 prostate
# M14 melanoma = test system: M14 melanoma
# UACC-62 melanoma = test system: UACC-62 melanoma
# K-562 leukemia = test system: K-562 leukemia
# OVCAR-4 ovarian = test system: OVCAR-4 ovarian
# SF-295 CNS = test system: SF-295 CNS
# NCI-H23 lung = test system: NCI-H23 lung
# SK-MEL-5 melanoma = test system: SK-MEL-5 melanoma
# SN12C renal = test system: SN12C renal
# CCRF-CEM leukemia = test system: CCRF-CEM leukemia
# SR leukemia = test system: SR leukemia
# 786-0 renal = test system: 786-0 renal
# SNB-19 CNS = test system: SNB-19 CNS
# UO-31 renal = test system: UO-31 renal
structure (smiles),measurement,setting,value
CCN1C(=O)N(CC)C2NNC(Sc3c(C(=O)O)c4ccccc4n(C4CCCC4)c3=O)=NC21 (centres undefined),GI50,NCI-H226 lung,4.34 µM
same,TGI,NCI-H226 lung,17.7 µM
same,GI50,OVCAR-8 ovarian,3.28 µM
same,TGI,OVCAR-8 ovarian,12.7 µM
same,GI50,IGROV1 ovarian,4.41 µM
same,TGI,IGROV1 ovarian,29.4 µM
same,GI50,SK-MEL-2 melanoma,4.15 µM
same,TGI,SK-MEL-2 melanoma,19.4 µM
same,GI50,MDA-MB-468 breast,2.02 µM
same,TGI,MDA-MB-468 breast,6.05 µM
same,GI50,HS 578T breast,2.21 µM
same,TGI,HS 578T breast,8.88 µM
same,GI50,COLO 205 colon,2.04 µM
same,TGI,COLO 205 colon,4.16 µM
same,GI50,HOP-62 NSCLC,5.75 µM
same,TGI,HOP-62 NSCLC,37.2 µM
same,GI50,HCT-116 colon,3.09 µM
same,TGI,HCT-116 colon,11.2 µM
same,GI50,HOP-92 NSCLC,10.3 µM
same,TGI,HOP-92 NSCLC,35 µM
same,GI50,RXF 393 renal,2.85 µM
same,TGI,RXF 393 renal,11.9 µM
same,GI50,SNB-75 CNS,1.51 µM
same,TGI,SNB-75 CNS,11.8 µM
same,GI50,MALME-3M melanoma,7.36 µM
same,TGI,MALME-3M melanoma,25.6 µM
same,GI50,A498 renal,14.8 µM
same,TGI,A498 renal,42.8 µM
same,GI50,MCF7 breast,2.07 µM
same,TGI,MCF7 breast,13.3 µM
same,GI50,MOLT-4 leukemia,3.88 µM
same,TGI,MOLT-4 leukemia,50.3 µM
same,GI50,PC-3 prostate,4.06 µM
same,TGI,PC-3 prostate,33.6 µM
same,GI50,M14 melanoma,3.28 µM
same,TGI,M14 melanoma,13.3 µM
same,GI50,UACC-62 melanoma,3.05 µM
same,TGI,UACC-62 melanoma,16.3 µM
same,GI50,K-562 leukemia,3.13 µM
same,TGI,K-562 leukemia,> 100 µM
same,GI50,OVCAR-4 ovarian,6.15 µM
same,TGI,OVCAR-4 ovarian,45 µM
same,GI50,SF-295 CNS,2.41 µM
same,TGI,SF-295 CNS,7.88 µM
same,GI50,NCI-H23 lung,3.44 µM
same,TGI,NCI-H23 lung,15.4 µM
same,GI50,SK-MEL-5 melanoma,3.49 µM
same,TGI,SK-MEL-5 melanoma,13.6 µM
same,GI50,SN12C renal,3.41 µM
same,TGI,SN12C renal,16.1 µM
same,GI50,CCRF-CEM leukemia,3.45 µM
same,TGI,CCRF-CEM leukemia,38.3 µM
same,GI50,SR leukemia,3.4 µM
same,TGI,SR leukemia,35.7 µM
same,GI50,786-0 renal,4.36 µM
same,TGI,786-0 renal,19.4 µM
same,GI50,SNB-19 CNS,4.59 µM
same,TGI,SNB-19 CNS,57.3 µM
same,GI50,UO-31 renal,4.38 µM
